Source: US10112922B2, “Inhibitor of bruton's tyrosine kinase” (Centaurus BioPharma Co., Ltd., priority 2014, dated 2018)
Entries after “also recorded” stand apart in the source; their conditions may differ. Where two headings read alike, the source gives them in different places.

Tests used:
[1] = test system: OCI-LY-10 cells; test: Efficacy in subcutaneously xenografted tumor model in mice; format: in vivo, CB-17 SCID mice; details: 100 mg/kg PO QD
Method: SPF grade female CB-17 SCID mice (4-5 week) were used. 0.1 ml of OCI-LY-10 cells suspended in serum-free medium (containing 5×10^6 cells, 30% Matrigel) were injected subcutaneously in both the left and the right flanks of mice. Mice were grouped and numbered when the average tumor volumes were more than 100 mm3, and the body weights and tumor volumes were determined. The mice were randomly grouped according to tumor volumes, and appropriate adjustments were made so that the average body weight in each group is on the same level. Animals were dosed orally on the same day when they were grouped, and body weights and tumor volumes were measured twice a week. Relative tumor growth (T/C) and Tumor growth inhibition (TGI) were the major test indeces.
The equation for calculating the tumor volume is V=0.5×a×b^2, wherein v is the tumor volume, a and b are the length and the width of the tumor, respectively. The relative tumor volume (RTV) was calculated according to the tumor volume with the equation RTV=Vt/V0, wherein V0 was the tumor volume at the time when the animals were grouped, and Vt was the tumor volume at indicated time points. The equation for calculating the relative tumor proliferation rate was T/C (%)=TRTV/CRTV*100%. (TRTV was the RTV of treated group, and CRTV was the RTV of control group).
The equation for calculating the tumor growth inhibition rate was TGI (%)=(1−(tumor volume of the treated group−tumor volume of the treated group at the time when the animals were grouped)/(tumor volume of the control group−tumor volume of the control group at the time when the animals were grouped))*100%.

[2] = molecular target: Btk kinase (Homo sapiens (Human), UniProt Q06187); test: Btk kinase enzymatic activity assay (HTRF); format: biochemical
Method: The half inhibition concentrations (IC50 values) of the compounds disclosed herein on Btk were determined at both enzymatic level and cellular level: the ability of the compounds to inhibit the activity of Btk kinase was determined in an enzymtic activity assay, and the inhibitory effect of the compounds on BCR-induced calcium flux in cells was determined in a cellular function assay.
(§1) The compounds were gradiently diluted 3 folds starting from 1 mM with 100% DMSO (totally 11 concentrations). 4 μL of each sample with a different concentration was added into 96 μL of reaction buffer (50 mM HEPES, pH 7.4, 10 mM MgCl2, 1 mM EGTA, 0.01% Tween-20, 0.005% BAS, 2 mM DTT). […] The mixture was centrifuged to mix well, followed by adding 2.5 μL of a mixture of ATP (final concentration designated as Km) and TK petide (HTRF® KinEASE™-TK, Cisbio) to initiate the reaction (total reaction volume being 10 μL). […] The enzyme activity for each compound was determined at 11 concentrations, and IC50 values were obtained by GraFit Software 6.0 (Erithacus Software).

[3] = molecular target: ITK kinase (Homo sapiens (Human), UniProt Q08881); test: ITK kinase enzymatic assay (same HTRF method as BTK); format: biochemical
Method: as §1
In vitro activity in inhibiting ITK kinase was determined similar to that in respect of BTK kinase.

[4] = test system: type II collagen-induced arthritis; test: Type II collagen-induced arthritis mice model; format: in vivo, DBA/1 mice
Method: The mice were randomly grouped according to their arthritis scores when the onset of arthritis was observed after 4 weeks. Compounds were then administered continuously for 4 weeks, during which the arthritis scores were evaluated for each mouse and the body weights thereof were measure every other day. The criteria for evaluating the arthritis score were as follows:
1=erythema and mild swelling at ankle joint;
2=erythema and mild swelling from ankle joint to phalangeal joint or metacarpal joint;
3=erythema and moderate swelling from ankle joint to phalangeal joint or metacarpal joint;
4=erythema and severe swelling or ankylosis on whole foot including from ankle joint to phalangeal joint.
Each paw was scored according to the above criteria, and the highest score was 16.

[5] = Toxicity test in mice (7-day oral administration); format: in vivo, CD-1 (ICR) mice; details: for Average body weight of mice / Changes (%) in mice body weight in treated group over control group: 1000 mg/kg oral once a day
Text: Body weights and conditions of mice were monitored every day, during which all mice were not fasting.

[6] = 1000 mg/kg oral once a day for 7 days

Sequence of Btk kinase (Q06187 whole entry): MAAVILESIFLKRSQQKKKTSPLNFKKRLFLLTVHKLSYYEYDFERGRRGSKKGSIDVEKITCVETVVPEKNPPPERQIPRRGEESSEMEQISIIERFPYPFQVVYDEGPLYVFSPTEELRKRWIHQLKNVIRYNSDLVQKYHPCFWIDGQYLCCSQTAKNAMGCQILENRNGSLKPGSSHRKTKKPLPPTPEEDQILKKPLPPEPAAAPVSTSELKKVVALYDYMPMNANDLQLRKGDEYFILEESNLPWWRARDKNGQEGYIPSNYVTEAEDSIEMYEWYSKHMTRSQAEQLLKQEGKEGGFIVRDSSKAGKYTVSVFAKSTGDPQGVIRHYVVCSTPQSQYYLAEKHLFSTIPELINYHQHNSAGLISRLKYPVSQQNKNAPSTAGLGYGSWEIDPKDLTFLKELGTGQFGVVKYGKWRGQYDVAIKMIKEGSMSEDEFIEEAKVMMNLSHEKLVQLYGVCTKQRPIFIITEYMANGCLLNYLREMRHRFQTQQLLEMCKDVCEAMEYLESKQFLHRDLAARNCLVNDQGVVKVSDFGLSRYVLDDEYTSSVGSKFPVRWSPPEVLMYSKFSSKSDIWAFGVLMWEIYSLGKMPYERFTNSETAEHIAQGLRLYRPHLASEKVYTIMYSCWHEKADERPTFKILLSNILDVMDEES
Sequence of ITK kinase (Q08881 whole entry): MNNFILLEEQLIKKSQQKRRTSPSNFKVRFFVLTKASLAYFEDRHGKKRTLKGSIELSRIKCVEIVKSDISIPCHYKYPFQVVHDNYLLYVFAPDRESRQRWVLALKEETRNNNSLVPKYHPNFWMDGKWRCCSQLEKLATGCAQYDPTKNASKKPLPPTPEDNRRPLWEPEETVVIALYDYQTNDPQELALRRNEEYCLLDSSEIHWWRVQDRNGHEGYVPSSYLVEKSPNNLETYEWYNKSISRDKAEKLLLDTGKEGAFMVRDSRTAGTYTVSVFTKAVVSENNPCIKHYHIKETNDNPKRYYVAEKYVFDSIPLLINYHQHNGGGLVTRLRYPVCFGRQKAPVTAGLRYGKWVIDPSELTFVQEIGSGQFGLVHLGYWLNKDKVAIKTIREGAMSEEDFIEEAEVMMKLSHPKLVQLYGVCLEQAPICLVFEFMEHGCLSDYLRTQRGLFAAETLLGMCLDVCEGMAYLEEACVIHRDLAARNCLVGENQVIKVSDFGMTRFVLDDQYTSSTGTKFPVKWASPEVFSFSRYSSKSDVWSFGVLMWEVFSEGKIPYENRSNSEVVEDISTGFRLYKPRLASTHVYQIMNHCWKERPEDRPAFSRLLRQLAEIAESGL

## COC/C=C/C(=O)N1CC[C@@H](n2nc(-c3ccc(Oc4ccccc4)cc3)c(C(N)=O)c2N)C1 [Example 9, (R,E)-5-amino-1-(1-(4-methoxybut-2-enoyl)pyrrolidin-3-yl)-3-(4-phenoxyphenyl)-1H-pyrazole-4-carboxamide]
[1]; Day 3
  TGI (%) Day 3: 45.79%
[1]; Day 8
  TGI (%) Day 8: 39.37%
[1]; Day 11
  TGI (%) Day 11: 43.05%
[2]; Table 1, read-out: Btk IC50
  IC50: < 100 nM
[2]; Table 5, kinase selectivity test, read-out: IC50 (nM) BTK
  IC50: 1.9 nM
[2]; calculated from IC50 values
  selectivity on BTK vs ITK: more than 1000 folds
[3]; Table 1, read-out: Itk IC50
  IC50: > 1000 nM
[3]; Table 5, kinase selectivity test, read-out: IC50 (nM) ITK
  IC50: > 1000 nM
[4]; 0.3 mg/kg
  therapeutic effect on arthritis at very low dosage: good therapeutic effect; also recorded: comparable to that of 3 mg/kg of PCI-32765
[4]; administered continuously for 4 weeks, FIG. 1
  arthritis (arthritis score) after administration: significantly alleviated
[5]; [6]
  difference in body weight change from control group: < 2%
  toxicity: no toxicity
[5]; Day 1
  Average body weight of mice: 24.4 g
  Changes (%) in mice body weight in treated group over control group: 100.0%
[5]; Day 2
  Average body weight of mice: 24.6 g
  Changes (%) in mice body weight in treated group over control group: 100.0%
[5]; Day 3
  Average body weight of mice: 25.1 g
  Changes (%) in mice body weight in treated group over control group: 100.3%
[5]; Day 4
  Average body weight of mice: 25.6 g
  Changes (%) in mice body weight in treated group over control group: 101.1%
[5]; Day 5
  Average body weight of mice: 26.4 g
  Changes (%) in mice body weight in treated group over control group: 101.8%
[5]; Day 6
  Average body weight of mice: 26.9 g
  Changes (%) in mice body weight in treated group over control group: 101.7%
[5]; Day 7
  Average body weight of mice: 27.2 g
  Changes (%) in mice body weight in treated group over control group: 101.7%
